Assay results: patent publication EP0574781A2, “2-Amino-5-heterocyclic-substituted-1,4-benzodiazepines and their use in the treatment of aids” (priority 1992, dated 1993)

Target: T1, HIV-TAT (Human immunodeficiency virus type 1 group M subtype B, UniProt P04608)
T1 construct: expressed in transfected cells; host or cells: COS cells
Assay: anti-HIV-TAT assay (SeAP reporter under HIV-LTR versus RSV-LTR in transfected COS cells)
Format: cell-based
Details: specific inhibition 100 [(1-A/B) - (1-C/D)] of SeAP under HIV-LTR versus RSV-LTR, concentrations tested 1 to 50 /1.M, compound added 24 hours post transfection, assayed 48 hours after addition, average of at least three tests
Experimental: The compounds of formula I were tested for anti-HIV-TAT activity in an assay described in US Patent No. 5070010, comprising the following steps: • (a) putting both the expression of the Secreted Alkaline Phosphatase (SeAP) gene and the viral trasactivator TAT gene under the control of the HIV promoter LTR responsive to the action of the HIV transactivator TAT; • (b) transfecting cultured mammalian cells with plasmids which contain the gene constructs of (a) above and cause cellular production of the trasactivating factor TAT ad SeAP; • (c) adding the agent to be tested, here the compounds of formula I; and determining the amount of SeAP produced, by measuring SeAP enzymatic activity, whereby inhibition of SeAP production correlates with the anti-TAT inhibition activity.
In this assay, the inhibition of SeAP positively correlates with anti-TAT activity. The greater the ability of a agent to inhibit SeAP, the greater is its anti-TAT activity.
Specifically, with respect to the results reported below, the anti-HIV-TAT assay was run as follows: • At 24 hours post transfection 1, 10 and 50 /1.M of a test compound of formula I was added to the culture media of COS cells transfected with two plasmids, one containing the reporter gene which codes for SeAP under control of HIV-LTR, and the other containing the HIV-TAT gene also under control of HIV-LTR. […]
The anti-HIV-TAT activities of the test compounds were determined by measuring the amount of alkaline phosphatase in the supernatant media of cultures of cells in which SeAP gene expression was under the control of the HIV LTR promoter. The specific inhibitory activities of the test compounds were calculated according to the formula: 100 [(1-A/B) - (1-C/D)] where A and B are the alkaline phosphatase activites produced by HIV-LTR/SeAP in the presence and absence, respectively, of test compound, and C and D are the alkaline phosphatase activities produced by RSV-LTR/SeAP in the presence and absence, respectively, of test compound. […]

T1 sequence (P04608 whole entry): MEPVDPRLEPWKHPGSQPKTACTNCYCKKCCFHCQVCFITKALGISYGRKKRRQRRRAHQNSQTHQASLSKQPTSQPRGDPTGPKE

`CNC1=Nc2ccc(C)cc2C(c2cn[nH]c2)=NC1` [Example 3, N,7-Dimethyl-5-(1 H-pyrazol-4-yl)-3H-1,4-benzodiazepin-2-amine] was tested, and the Anti-HIV-TAT activity was “High/Medium”.
With `CNC1=Nc2ccc(Cl)cc2C(c2cn[nH]c2)=NC1` [Example 2, 7-chloro-N-methyl-5-(1 H-pyrazol-4-yl)-3H-1,4-benzodiazepin-2-amine] the Anti-HIV-TAT activity was “High/Medium”.
With `CNC1=Nc2ccc(Cl)cc2C(c2cnn[nH]2)=NC1` [Example 1, 7-chloro-N-methyl-5-(1H-1,2,3-triazol-5-yl)3H-1,4-benzodiazepin-2-amine] the Anti-HIV-TAT activity was “High (High is >60% inhibition)”.
